Results published in patent publication US20020045780A1, “Biologically active spermidine analogues, pharmaceutical compositions and methods of treatment” (priority 1997, published 2002).
“Also recorded” adds a separate entry of the source. Counter-ions that a name gives are not always drawn. Like-named read-outs stand apart in the source and are kept apart here.

What was measured:
L1210 cells [1] = assay: L1210 growth inhibition, IC50 determination; assay type: cell-based, murine
Experimental: Murine L1210 leukemia cells (ATCC CCL 219) were maintained in logarithmic growth in RPMI-1640 medium containing 10% fetal calf serum or a semi-synthetic equivalent, NuSerum, 2% HEPES-MOPS buffer and 1 mM aminoguanidine.

[2] = tested on: polyamine transport apparatus; assay: Competitive uptake determination: inhibition of [3H]spermidine transport into L1210 cells; assay type: cell-based, murine; conditions: analogue inhibition of spermidine transport
Experimental: The ability of the norspermidines, spermidines, homospermidines, 4,5- and 5,5-triamines to compete with radiolabeled SPD for uptake was evaluated (Table 1). The general trend is that the terminally alkylated triamines have higher Ki values than the unalkylated triamines and are thus less easily taken up by the cell. […] This is not completely true with the norspermidines and the 5,5 triamines. The relationship holds with methyl and ethyl but not for the propyl of the latter two systems. Finally, the number of methylenes separating the amines plays a role in determining polyamine uptake properties. In general the effectiveness with which the analogues compete for uptake is spermidines≈homospermidines>4,5 triamines>5,5 triamines>norspermidine.
The polyamine derivatives were studied for their ability to compete with [^3H]-SPD for uptake into L1210 cells [Bergeron et al, J. Med. Chem., Vol. 37, supra]. Lineweaver-Burk plots indicated a simple competitive inhibition with respect to SPD.

L1210 cells [3] = assay: Polyamine pool analysis in L1210 cells; assay type: cell-based, murine; conditions: for Put / Spd / activity at 100 µM / activity at 500 µM / activity at 25 µM / activity at 125 µM / activity at 0.9 µM / activity at 4.5 µM: % of untreated control; for Put / Spd: Trihydrochloride; for activity at 100 µM / activity at 500 µM / activity at 25 µM / activity at 125 µM / activity at 0.9 µM / activity at 4.5 µM: Mus musculus; for Analogue: intracellular amount
Experimental: The following guidelines were adopted for studying the impact of the analogues on polyamine pools (Table 2). The measurements were made after a 48-hour exposure to the analogue, and two different concentrations of analogue were evaluated in each case.
(§1) The cells were washed twice with cold RPMI-1640, and the pellet was treated with 0.6 N HClO4 (1 ml/10^7 cells). Polyamine contents of the perchloric acid extracts were quantitated by HPLC of the DANSYL derivatives [Bergeron et al, J. Med. Chem., Vol. 37, supra].

[4] = tested on: ornithine decarboxylase (ODC); assay: ODC activity in treated L1210 cells; assay type: cell-based, murine; conditions: L1210, 1 μM at 4 hours
Experimental: (§2) On the basis of these studies, it was elected to evaluate the impact of the triamines on ODC and AdoMetDC at 4 and 6 hours, respectively.
(§3) ODC and AdoMetDC activities were determined as ^14CO2 released from [^14C]-carboxyl-labeled L-ornithine [Seely et al, “Ornithine Decarboxylase (Mouse Kidney),” Methods Enzymol., Vol. 94, pages 158-161 (1983)] or S-adenosyl-L-methionine [Pegg et al, “S-Adenosylmethionine Decarboxylase (Rat Liver),” Methods Enzymol., Vol. 94, pages 234-239 (1983)], respectively. Included in each assay were untreated L1210 cells as controls, as well as cells treated with DEHSPM, a drug having a known reproducible effect on each enzyme, as positive controls.

[5] = tested on: S-adenosylmethionine decarboxylase (AdoMetDC); assay: AdoMetDC activity in treated L1210 cells; assay type: cell-based, murine; conditions: L1210, 1 μM at 6 hours
Experimental: as §2, §3

[6] = tested on: spermidine/spermine acetyltransferase (SSAT); assay: SSAT activity in treated L1210 cells; assay type: cell-based, murine; conditions: L1210, 10 μM at 48 hours (triamine analogues)
Description: Spermidine/spermine N^1-acetyltransferase activity was based on quantitation of [^14C]-N^1-acetylspermidine formed by acetylation of SPD with [^14C] acetyl coenzyme A according to the method of Libby et al [Biochem. Pharmacol., Vol. 38, supra]. Cells treated with DENSPM were positive controls.

L1210 cells [7] = assay: Metabolic transformation of polyamine analogues by L1210 cells; assay type: in vitro ADME, murine; conditions: 48 hours, 100 μM analogue
Experimental: as §1

L1210 cells [8] = conditions: intracellular amount, 48 hours, cited from earlier work
[9] = Mus musculus, L1210, 48 h, L1210, 48 hour exposure, read-out: IC50 48 hour
[10] = Mus musculus, L1210, 96 h, L1210, 96 hour exposure, read-out: IC50 96 hour
[11] = 500 μM, 48 hours, listed as (4,5)
[12] = L1210, 48 h, 100 μM, read-out: Put
[13] = L1210, 48 h, 100 μM, read-out: Spd
[14] = L1210, 48 h, 100 μM, read-out: Spm
[15] = L1210, 48 h, 500 μM, read-out: Put
[16] = L1210, 48 h, 500 μM, read-out: Spd
[17] = L1210, 48 h, 500 μM, read-out: Spm
[18] = 500 μM, 48 hours, listed as (5,5)

Row | SMILES | IC50 (L1210 cells [1]; [9]) | IC50 (L1210 cells [1]; [10]) | Analogue (L1210 cells [3]; 100 μM, 48 hours) | Analogue (L1210 cells [3]; 500 μM, 48 hours) | Parent drug as % of total drug in the cell (L1210 cells [7]) | Parent drug in L1210 cells (L1210 cells [7]) | Ki [2] | activity at 100 µM (L1210 cells [3]; [12]) | activity at 100 µM (L1210 cells [3]; [13]) | activity at 100 µM (L1210 cells [3]; [14]) | activity at 500 µM (L1210 cells [3]; [15]) | activity at 500 µM (L1210 cells [3]; [16]) | activity at 500 µM (L1210 cells [3]; [17]) | ODC activity, percent of untreated control [4] | AdoMetDC activity, percent of untreated control [5] | SSAT activity, percent of untreated control [6] | further results
1 | NCCCCCNCCCCCN [5,5-Triamine, 1,7,13-Triazatridecane Trihydrochloride] | ~100 µM | 0.3 to 0.5 µM | 2.58 nmol/10^6 cells | 2.50 nmol/10^6 cells |  |  | 13.8 µM | 0% | 0% | 33% | 0% | 0% | 20% | 16% of untreated control | 88% of untreated control | 90% of untreated control | Put (L1210 cells [3]; [18]): below detectable level; Spd (L1210 cells [3]; [18]): below detectable level
2 | NCCCCNCCCCN [HSPD, Homospermidine Trihydrochloride] | > 100 µM | 1.7 to 4 µM | 3.58 nmol/10^6 cells | 4.44 nmol/10^6 cells |  |  | 3.4 µM |  |  |  |  |  |  | 11% of untreated control | 54% of untreated control | 430% of untreated control | activity at 100 µM (L1210 cells [3]; L1210, 100 μM, 48 hours, read-out: Put): 0%; activity at 100 µM (L1210 cells [3]; L1210, 100 μM, 48 hours, read-out: Spd): 4%; activity at 100 µM (L1210 cells [3]; L1210, 100 μM, 48 hours, read-out: Spm): 32%; activity at 500 µM (L1210 cells [3]; L1210, 500 μM, 48 hours, read-out: Put): 0%; activity at 500 µM (L1210 cells [3]; L1210, 500 μM, 48 hours, read-out: Spd): 2%; activity at 500 µM (L1210 cells [3]; L1210, 500 μM, 48 hours, read-out: Spm): 21%
3 | CCNCCCNCCCCNCCCN [MESPM] |  |  |  |  |  |  |  |  |  |  |  |  |  |  |  |  | Analogue, corresponding tetraamine (in parentheses) (L1210 cells [8]; 100 μM): (1.24) nmol/10^6 cells; Analogue, corresponding tetraamine (in parentheses) (L1210 cells [8]; 500 μM): (1.23) nmol/10^6 cells
4 | NCCCNCCCN [NSPD, N—(3-aminopropyl)-1,3-propanediamine, reference compound] | 0.9 µM | 0.5 µM |  |  |  |  | 7.2 µM |  |  |  |  |  |  | 11% of untreated control | 62% of untreated control | 150% of untreated control | activity at 0.9 µM (L1210 cells [3]; L1210, 0.9 μM, 48 hours, read-out: Put): 38%; activity at 0.9 µM (L1210 cells [3]; L1210, 0.9 μM, 48 hours, read-out: Spd): 44%; activity at 0.9 µM (L1210 cells [3]; L1210, 0.9 μM, 48 hours, read-out: Spm): 113%; activity at 4.5 µM (L1210 cells [3]; L1210, 4.5 μM, 48 hours, read-out: Put): 0%; activity at 4.5 µM (L1210 cells [3]; L1210, 4.5 μM, 48 hours, read-out: Spd): 12%; activity at 4.5 µM (L1210 cells [3]; L1210, 4.5 μM, 48 hours, read-out: Spm): 83%; Analogue (L1210 cells [3]; 0.9 μM, 48 hours): 1.09 nmol/10^6 cells; Analogue (L1210 cells [3]; 4.5 μM, 48 hours): 2.14 nmol/10^6 cells

More lines, main results first:

Row | IC50 (L1210 cells [1]; [9]) | IC50 (L1210 cells [1]; [10]) | Analogue (L1210 cells [3]; 100 μM, 48 hours) | Analogue (L1210 cells [3]; 500 μM, 48 hours) | Parent drug as % of total drug in the cell (L1210 cells [7]) | Parent drug in L1210 cells (L1210 cells [7]) | SMILES | Ki [2] | activity at 100 µM (L1210 cells [3]; [12]) | activity at 100 µM (L1210 cells [3]; [13]) | activity at 100 µM (L1210 cells [3]; [14]) | activity at 500 µM (L1210 cells [3]; [15]) | activity at 500 µM (L1210 cells [3]; [16]) | activity at 500 µM (L1210 cells [3]; [17]) | ODC activity, percent of untreated control [4] | AdoMetDC activity, percent of untreated control [5] | SSAT activity, percent of untreated control [6] | further results
5 | > 100 µM | 0.15 to 0.2 µM | 3.02 nmol/10^6 cells | 3.20 nmol/10^6 cells |  |  | NCCCCCNCCCCN [4,5-Triamine, 1,6,12-Triazadodecane Trihydrochloride] | 1.4 µM | 0% | 1% | 53% | 0% | 0% | 35% | 19% of untreated control | 57% of untreated control | 410% of untreated control | Put (L1210 cells [3]; [11]): below detectable level; Spd (L1210 cells [3]; [11]): below detectable level
6 | 25 µM | 0.3 to 0.4 µM |  |  | 100% | 4215 pmols/10^6 | CCNCCCCNCCCCNCC [DEHSPD, N^1,N^9-Diethylhomospermidine Trihydrochloride] | 19 µM |  |  |  |  |  |  | 47% of untreated control | 90% of untreated control | 640% of untreated control | IC50 (L1210 cells [1]; L1210, 48 hour exposure, Trihydrochloride, read-out: IC50 48 hour): 18 to 25 µM; activity at 25 µM (L1210 cells [3]; L1210, 48 h, 25 μM, read-out: Put): 0%; activity at 25 µM (L1210 cells [3]; L1210, 48 h, 25 μM, read-out: Spd): 6%; activity at 25 µM (L1210 cells [3]; L1210, 48 h, 25 μM, read-out: Spm): 114%; activity at 125 µM (L1210 cells [3]; L1210, 48 h, 125 μM, read-out: Put): 0%; activity at 125 µM (L1210 cells [3]; L1210, 48 h, 125 μM, read-out: Spd): 3%; activity at 125 µM (L1210 cells [3]; L1210, 48 h, 125 μM, read-out: Spm): 97%; Analogue (L1210 cells [3]; 25 μM, 48 hours): 4.61 nmol/10^6 cells; Analogue (L1210 cells [3]; 125 μM, 48 hours): 4.69 nmol/10^6 cells; N-Monodealkylation (result in words) (L1210 cells [7]; listed as DE-[4,4], Trihydrochloride): do not show significant N-deethylation; also recorded: no N-deethylation
7 | > 100 µM | 30 to 35 µM | 3.26 nmol/10^6 cells | 3.69 nmol/10^6 cells | 90.1% | 3260 pmols/10^6 | CCCNCCCCNCCCNCCC [DPSPD, N^1,N^8-Dipropylspermidine Trihydrochloride] | 25.6 µM | 6% | 35% | 135% | 0% | ~10% | 99% | 75% of untreated control |  | 1030% of untreated control | 
8 | > 100 µM | > 100 µM |  |  | 78.2% | 3051 pmols/10^6 | CCNCCCNCCCN [MENSPD, monoethylnorspermidine] | 34 µM |  |  |  |  |  |  | 42% of untreated control | 58% of untreated control | 390% of untreated control | Elaboration to tetraamine (result in words) (L1210 cells [7]; listed as ME-[3,3]): no evidence of a tetraamine elaboration metabolite; also recorded: no elaboration of N-Monoalkyl [3,3]
9 | 100 µM | 0.5 to 0.7 µM | 5.16 nmol/10^6 cells | 5.86 nmol/10^6 cells |  |  | CCCNCCCCNCCCCN [MPHSPD, N^1-Propylhomospermidine Trihydrochloride] | 5 µM | 0% | 2% | 82% | 0% | 0% | 66% | 20% of untreated control | 59% of untreated control | 570% of untreated control | 
